{"source": "paper PMC7782785", "about": "“Outer-membrane-acting peptides and lipid II-targeting antibiotics cooperatively kill Gram-negative pathogens” (Communications Biology, 2021)", "key": {"A. baumannii ATCC 17978": {"tested_on": "A. baumannii ATCC 17978", "assay": "microbe, parasite or virus in culture", "assay_type": "cell-based", "conditions": "Acinetobacter baumannii, ATCC17978, read-out: MIC alone (MICA vancomycin, MICB D-11)", "description": "(§1) MIC tests were performed in triplicate by liquid growth inhibition microdilution assays in sterile polypropylene microtiter plates according to the Clinical and Laboratory Standards Institute (CLSI) guideline for bacteria that grow aerobically. Briefly, the indicator strains were first streaked on the appropriate agar plate, and then single colonies were picked and incubated overnight in liquid broth. The final inoculum of bacteria was 5*10^5 CFU/mL prepared in CAMHB (cationic adjusted Mueller–Hinton broth, Sigma-Aldrich) or CAMHB plus 5% of lysed horse blood (TCS Biosciences, Buckingham, UK) in the case of S. pneumoniae. The antimicrobials were 2-fold serially diluted and 50 µL diluted bacterial suspension was added to each well to make the final volume 100 µL. The microtiter plates and the count plates were incubated at 37 °C for 16–20 h without shaking. Growth inhibition was assessed by measuring the OD600 using a microplate reader (Tecan Infinity F200). The lowest concentration of the antimicrobials that inhibits visible growth of the indicator strain is identified as the MIC value."}, "[1]": {"tested_on": "A. baumannii ATCC BAA-1605", "assay": "microbe, parasite or virus in culture", "assay_type": "cell-based", "conditions": "Acinetobacter baumannii, ATCCBAA1605, read-out: MIC alone (MICA vancomycin, MICB D-11)", "description": "as §1"}, "A. baumannii B2026": {"tested_on": "A. baumannii B2026", "assay": "microbe, parasite or virus in culture", "assay_type": "cell-based", "conditions": "Acinetobacter baumannii, B2026, read-out: MIC alone (MICA vancomycin, MICB D-11)", "description": "as §1"}, "E. coli ATCC 25922": {"tested_on": "E. coli ATCC 25922", "assay": "microbe, parasite or virus in culture", "assay_type": "cell-based", "conditions": "Escherichia coli, ATCC25922, read-out: MIC alone (MICA vancomycin, MICB D-11)", "description": "as §1"}, "E. coli ATCC BAA-2452": {"tested_on": "E. coli ATCC BAA-2452", "assay": "microbe, parasite or virus in culture", "assay_type": "cell-based", "conditions": "Escherichia coli, ATCCBAA2452, read-out: MIC alone (MICA vancomycin, MICB D-11)", "description": "as §1"}, "E. coli B1927": {"tested_on": "E. coli B1927", "assay": "microbe, parasite or virus in culture", "assay_type": "cell-based", "conditions": "Escherichia coli, B1927, read-out: MIC alone (MICA vancomycin, MICB D-11)", "description": "as §1"}, "K. pneumoniae ATCC700603 [2]": {"tested_on": "K. pneumoniae ATCC700603", "assay": "microbe, parasite or virus in culture", "assay_type": "cell-based", "conditions": "Klebsiella pneumoniae, ATCC700603, read-out: MIC alone (MICA vancomycin, MICB D-11)", "description": "as §1"}, "[3]": {"tested_on": "P. aeruginosa ATCC BAA-2108", "assay": "microbe, parasite or virus in culture", "assay_type": "cell-based", "conditions": "Pseudomonas aeruginosa, ATCCBAA2108, read-out: MIC alone (MICA vancomycin, MICB D-11)", "description": "as §1"}, "K. pneumoniae ATCC700603 [4]": {"tested_on": "K. pneumoniae ATCC700603", "assay": "Synergy test, checkerboard broth microdilution", "assay_type": "cell-based", "description": "For the synergy test, standard checkerboard broth microdilution assays were conducted to test the synergistic effect of combined antimicrobials using the same condition as before[51],[56]. […] The initial concentration of both peptides was their individual MIC. 50 µL fresh bacterial suspension prepared as above was added to the wells already containing the antimicrobial compound mixture to achieve 100 µL final volume per well.\nThe fractional inhibitory concentration (FIC) indices[57] were calculated using the formula FICI = FICa + FICb = MICac/MICa + MICbc/MICb, to determine whether the combination is additive, synergistic or antagonistic[51],[57]. The MICa and MICb is the MIC of compound A or B alone, respectively. MICac is the MIC of compound A in combination with compound B and MICbc is the MIC of compound B when it was combined with compound A. The FIC corresponds to the MIC of a compound in combination with the other compound, divided by the MIC of the compound alone. FICa is FIC of compound A while FICb is FIC of compound B. The FICI was interpreted according to EUCAST[58] as follows: synergistic, FICI ≤ 0.5; additive,0.5 < FICI ≤ 1; indifferent, 1 < FICI < 2; antagonistic, FICI ≥ 2."}, "[5]": {"tested_on": "all the Gram-negative strains tested", "assay": "organism not typed", "description": "as §1\nThe condition for the tests and the analysis of the plates were performed as described above for the MIC tests.\nHemolytic activity was determined with fresh human red blood cells (hRBCs)[28]. The hRBCs were centrifuged (1000×g, 5 min) and the supernatant was discarded. The pellets were washed three times with PBS and diluted in PBS to make the cell stock solution with a cell density of 2*10^8 cells/mL. […] 1% Triton X-100 and PBS were used as controls. […] The supernatant was transferred to a new 96-well plate and hemolysis was monitored by measuring the absorbance at 450 nm (OD450). Hemolysis levels were calculated as percentage. % hemolysis = 100 × (As−A0)/(At−A0), where As, A0, and At are the absorbance of the hRBCs suspension in PBS with antimicrobial agents (As), without antimicrobial agents (A0), and with 1% Triton X-100 (At). […] For the TI calculation (TI = MHC/GM), other factors as the GM (geometric mean of MIC value of all the Gram-negative strains tested) were calculated."}, "[6]": {"tested_on": "human red blood cells (hRBCs)", "assay": "Hemolytic activity", "description": "Hemolytic activity was determined with fresh human red blood cells (hRBCs)[28]. The hRBCs were centrifuged (1000×g, 5 min) and the supernatant was discarded. The pellets were washed three times with PBS and diluted in PBS to make the cell stock solution with a cell density of 2*10^8 cells/mL. […] 1% Triton X-100 and PBS were used as controls. The cells were incubated at 37 °C for 1 h and centrifuged at 2000 rpm for 5 min. The supernatant was transferred to a new 96-well plate and hemolysis was monitored by measuring the absorbance at 450 nm (OD450). Hemolysis levels were calculated as percentage. % hemolysis = 100 × (As−A0)/(At−A0), where As, A0, and At are the absorbance of the hRBCs suspension in PBS with antimicrobial agents (As), without antimicrobial agents (A0), and with 1% Triton X-100 (At). […] For the TI calculation (TI = MHC/GM), other factors as the GM (geometric mean of MIC value of all the Gram-negative strains tested) were calculated."}, "P. aeruginosa PA14": {"tested_on": "P. aeruginosa PA14", "assay": "Murine abscess model", "assay_type": "in vivo, BALB/c mice", "description": "An overnight P. aeruginosa PA14 culture was inoculated into fresh LB medium (100-fold dilution) and grown until an OD600 of 1.0. The culture was washed twice and resuspended in 0.9% NaCl to 10^8 CFU/mL. Four groups of five 6-week-old female BALB/c mice were used. […] After 24 h, the mice were sacrificed and the abscesses were excised to count the CFU. The bacterial loads were determined by serial dilution and plating. All animal experiments complied with the US and Chinese national guidelines for the use of animals in research. The protocol was approved by the Animal Care and Use Committee of the College of Life Sciences, Nankai University (permission number NK-04-2012). All procedures involving animals were performed after animals were anesthetized. The experimental results were analyzed with the GraphPad Prism software."}}}
{"smiles": "CN[C@H](CC(C)C)C(=O)N[C@H]1C(=O)N[C@@H](CC(N)=O)C(=O)N[C@H]2C(=O)N[C@H]3C(=O)N[C@H](C(=O)N[C@H](C(=O)O)c4cc(O)cc(O)c4-c4cc3ccc4O)[C@H](O)c3ccc(c(Cl)c3)Oc3cc2cc(c3O[C@@H]2O[C@H](CO)[C@@H](O)[C@H](O)[C@H]2O[C@H]2C[C@](C)(N)[C@H](O)[C@H](C)O2)Oc2ccc(cc2Cl)[C@H]1O", "note": "[Vancomycin]", "values": [{"measurement": "MIC", "setting": "A. baumannii ATCC 17978", "result": 88.3, "unit": "µM"}, {"measurement": "MIC", "setting": "[1]", "result": 44.2, "unit": "µM"}, {"measurement": "MIC", "setting": "A. baumannii B2026", "result": 22.1, "unit": "µM"}, {"measurement": "MIC", "setting": "E. coli ATCC 25922", "result": "> 88.3", "unit": "µM"}, {"measurement": "MIC", "setting": "E. coli ATCC BAA-2452", "result": "> 88.3", "unit": "µM"}, {"measurement": "MIC", "setting": "E. coli B1927", "result": 88.3, "unit": "µM"}, {"measurement": "MIC", "setting": "K. pneumoniae ATCC700603 [2]", "result": "> 88.3", "unit": "µM"}, {"measurement": "MIC", "setting": "[3]", "result": "> 88.3", "unit": "µM"}, {"measurement": "MICAB: MIC of vancomycin in combination with D-11 at the MICAC concentration", "setting": "K. pneumoniae ATCC700603 [4]", "result": 11.04, "unit": "µM"}, {"measurement": "increase of MIC against Gram-negative pathogens when LPS was in the medium", "setting": "[5]; LPS 1 mg/mL, vancomycin: except against A. baumannii", "result": 2, "unit": "fold"}, {"measurement": "MIC", "setting": "[5]; read-out: GM, MIC geometric mean against all the Gram-negative strains tested", "result": 87.7, "unit": "µM"}, {"measurement": "HC50, concentration that causes 50% hemolysis of hRBCs", "setting": "[6]", "result": "> 500", "unit": "µM"}, {"measurement": "MHA, mean hemolytic activity", "setting": "[6]", "result": 0, "unit": "%"}, {"measurement": "MHC, minimal hemolytic concentration that caused 10% hemolysis of hRBCs", "setting": "[6]", "result": 1000, "unit": "µM"}, {"measurement": "hemolysis of hRBCs", "setting": "[6]", "result": "did not cause any hemolysis"}, {"measurement": "log10 CFU per abscess", "setting": "P. aeruginosa PA14; mouse 1 of 5, P. aeruginosa PA14 s.c., treatment injected into infection area 1 h post-infection, 24 h, vancomycin 3 mg/kg, D-11 10 mg/kg, or both", "result": 8.341, "unit": "log10 CFU per abscess"}, {"measurement": "log10 CFU per abscess", "setting": "P. aeruginosa PA14; mouse 2 of 5, same conditions", "result": 7.354, "unit": "log10 CFU per abscess"}, {"measurement": "log10 CFU per abscess", "setting": "P. aeruginosa PA14; mouse 3 of 5, same conditions", "result": 7.321, "unit": "log10 CFU per abscess"}, {"measurement": "log10 CFU per abscess", "setting": "P. aeruginosa PA14; mouse 4 of 5, same conditions", "result": 7.43, "unit": "log10 CFU per abscess"}, {"measurement": "log10 CFU per abscess", "setting": "P. aeruginosa PA14; mouse 5 of 5, same conditions", "result": 7.5121, "unit": "log10 CFU per abscess"}]}
